Laboratory results published in ChEMBL document CHEMBL4725382, “Uridine natural products: Challenging targets and inspiration for novel small molecule inhibitors” (Bioorg Med Chem, 2020).
Values after ≈ are worked out from the molar mass of the structure shown.

Tested on: Mycobacterium tuberculosis
Assay: Antimycobacterial activity against Mycobacterium tuberculosis H37Rv
Assay type: functional

Compound | MIC
CCCCCCCCCCCNC(=O)C1=CCN(C)[C@@H]([C@H](O[C@@H]2O[C@H](CN)[C@@H](O)[C@H]2O)[C@H]2O[C@@H](n3ccc(=O)[nH]c3=O)[C@H](O)[C@@H]2O)C(=O)N1C | 0.98 µM (≈ 0.697 µg/mL)
CCCCCCCCCCCCCCCCCCCNC(=O)C1=CCN(C)[C@@H]([C@H](O[C@@H]2O[C@H](CN)[C@@H](O)[C@H]2O)[C@H]2O[C@@H](n3ccc(=O)[nH]c3=O)[C@H](O)[C@@H]2O)C(=O)N1C | 0.98 µM (≈ 0.807 µg/mL)
C=CCCCCCCCCCOC(=O)C1=CCN(C)[C@@H]([C@H](O[C@@H]2O[C@H](CN)[C@@H](O)[C@H]2O)[C@H]2O[C@@H](n3ccc(=O)[nH]c3=O)[C@H](O)[C@@H]2O)C(=O)N1C | 17.6 µM (≈ 12.5 µg/mL)
CCCCCCCCCCCCCCCCCCNC(=O)C1=CCN(C)[C@@H]([C@H](O[C@@H]2O[C@H](CN)[C@@H](O)[C@H]2O)[C@H]2O[C@@H](n3ccc(=O)[nH]c3=O)[C@H](O)[C@@H]2O)C(=O)N1C | 0.98 µM (≈ 0.793 µg/mL)
CCCCCCc1ccc(NC(=O)C2=CCN(C)[C@@H]([C@H](O[C@@H]3O[C@H](CN)[C@@H](O)[C@H]3O)[C@H]3O[C@@H](n4ccc(=O)[nH]c4=O)[C@H](O)[C@@H]3O)C(=O)N2C)cc1 | 1.09 µM (≈ 0.781 µg/mL)
CC/C=C\CCCCCCCCCCOC(=O)C1=CCN(C)[C@@H]([C@H](O[C@@H]2O[C@H](CN)[C@@H](O)[C@H]2O)[C@H]2O[C@@H](n3ccc(=O)[nH]c3=O)[C@H](O)[C@@H]2O)C(=O)N1C | 16.6 µM (≈ 12.5 µg/mL)
CCCCCCCCCCCCc1ccc(NC(=O)C2=CCN(C)[C@@H]([C@H](O[C@@H]3O[C@H](CN)[C@@H](O)[C@H]3O)[C@H]3O[C@@H](n4ccc(=O)[nH]c4=O)[C@H](O)[C@@H]3O)C(=O)N2C)cc1 | 1.09 µM (≈ 0.873 µg/mL)
CCCCCCCCCCCCCCNC(=O)C1=CCN(C)[C@@H]([C@H](O[C@@H]2O[C@H](CN)[C@@H](O)[C@H]2O)[C@H]2O[C@@H](n3ccc(=O)[nH]c3=O)[C@H](O)[C@@H]2O)C(=O)N1C | 0.98 µM (≈ 0.738 µg/mL)
CCCCCCCC/C=C\CCCCCCCCNC(=O)C1=CCN(C)[C@@H]([C@H](O[C@@H]2O[C@H](CN)[C@@H](O)[C@H]2O)[C@H]2O[C@@H](n3ccc(=O)[nH]c3=O)[C@H](O)[C@@H]2O)C(=O)N1C | 3.88 µM (≈ 3.13 µg/mL)
CCCCCCCNC(=O)C1=CCN(C)[C@@H]([C@H](O[C@@H]2O[C@H](CN)[C@@H](O)[C@H]2O)[C@H]2O[C@@H](n3ccc(=O)[nH]c3=O)[C@H](O)[C@@H]2O)C(=O)N1C | 0.98 µM (≈ 0.642 µg/mL)
CCc1ccc(NC(=O)C2=CCN(C)[C@@H]([C@H](O[C@@H]3O[C@H](CN)[C@@H](O)[C@H]3O)[C@H]3O[C@@H](n4ccc(=O)[nH]c4=O)[C@H](O)[C@@H]3O)C(=O)N2C)cc1 | 1.09 µM (≈ 0.72 µg/mL)
CCCCCCCCCCCCCNC(=O)C1=CCN(C)[C@@H]([C@H](O[C@@H]2O[C@H](CN)[C@@H](O)[C@H]2O)[C@H]2O[C@@H](n3ccc(=O)[nH]c3=O)[C@H](O)[C@@H]2O)C(=O)N1C | 0.98 µM (≈ 0.724 µg/mL)
CCCCCCCCCCNC(=O)C1=CCN(C)[C@@H]([C@H](O[C@@H]2O[C@H](CN)[C@@H](O)[C@H]2O)[C@H]2O[C@@H](n3ccc(=O)[nH]c3=O)[C@H](O)[C@@H]2O)C(=O)N1C | 0.98 µM (≈ 0.683 µg/mL)
CCCCOc1ccc(NC(=O)C2=CCN(C)[C@@H]([C@H](O[C@@H]3O[C@H](CN)[C@@H](O)[C@H]3O)[C@H]3O[C@@H](n4ccc(=O)[nH]c4=O)[C@H](O)[C@@H]3O)C(=O)N2C)cc1 | 1.04 µM (≈ 0.733 µg/mL)
CCCCc1ccc(NC(=O)C2=CCN(C)[C@@H]([C@H](O[C@@H]3O[C@H](CN)[C@@H](O)[C@H]3O)[C@H]3O[C@@H](n4ccc(=O)[nH]c4=O)[C@H](O)[C@@H]3O)C(=O)N2C)cc1 | 1.09 µM (≈ 0.751 µg/mL)
CN1C(=O)[C@H]([C@H](O[C@@H]2O[C@H](CN)[C@@H](O)[C@H]2O)[C@H]2O[C@@H](n3ccc(=O)[nH]c3=O)[C@H](O)[C@@H]2O)N(C)CC=C1C(=O)Nc1ccc(C2CCCCC2)cc1 | 2.18 µM (≈ 1.56 µg/mL)
CCCCCCCCCCCCCOC(=O)C1=CCN(C)[C@@H]([C@H](O[C@@H]2O[C@H](CN)[C@@H](O)[C@H]2O)[C@H]2O[C@@H](n3ccc(=O)[nH]c3=O)[C@H](O)[C@@H]2O)C(=O)N1C | 8.45 µM (≈ 6.25 µg/mL)
CCCCCCCc1ccc(NC(=O)C2=CCN(C)[C@@H]([C@H](O[C@@H]3O[C@H](CN)[C@@H](O)[C@H]3O)[C@H]3O[C@@H](n4ccc(=O)[nH]c4=O)[C@H](O)[C@@H]3O)C(=O)N2C)cc1 | 1.09 µM (≈ 0.797 µg/mL)
CCCCCCCCCCCCCCCCCCOC(=O)C1=CCN(C)[C@@H]([C@H](O[C@@H]2O[C@H](CN)[C@@H](O)[C@H]2O)[C@H]2O[C@@H](n3ccc(=O)[nH]c3=O)[C@H](O)[C@@H]2O)C(=O)N1C | 8.45 µM (≈ 6.84 µg/mL)
CCCCCCCCNC(=O)C1=CCN(C)[C@@H]([C@H](O[C@@H]2O[C@H](CN)[C@@H](O)[C@H]2O)[C@H]2O[C@@H](n3ccc(=O)[nH]c3=O)[C@H](O)[C@@H]2O)C(=O)N1C | 0.98 µM (≈ 0.655 µg/mL)
CCCCOc1ccc(N)cc1 | 2.27 µM (≈ 0.375 µg/mL)
CN1C(=O)[C@H]([C@H](O[C@@H]2O[C@H](CN)[C@@H](O)[C@H]2O)[C@H]2O[C@@H](n3ccc(=O)[nH]c3=O)[C@H](O)[C@@H]2O)N(C)CC=C1C(=O)NC1CCCCCCCCCCC1 | 2.16 µM (≈ 1.56 µg/mL)
CCCCCCCCCCCCCCCNC(=O)C1=CCN(C)[C@@H]([C@H](O[C@@H]2O[C@H](CN)[C@@H](O)[C@H]2O)[C@H]2O[C@@H](n3ccc(=O)[nH]c3=O)[C@H](O)[C@@H]2O)C(=O)N1C | 0.98 µM (≈ 0.752 µg/mL)
CCCCCCCCCCCCNC(=O)C1=CCN(C)[C@@H]([C@H](O[C@@H]2O[C@H](CN)[C@@H](O)[C@H]2O)[C@H]2O[C@@H](n3ccc(=O)[nH]c3=O)[C@H](O)[C@@H]2O)C(=O)N1C | 0.98 µM (≈ 0.71 µg/mL)
CCCCCNC(=O)C1=CCN(C)[C@@H]([C@H](O[C@@H]2O[C@H](CN)[C@@H](O)[C@H]2O)[C@H]2O[C@@H](n3ccc(=O)[nH]c3=O)[C@H](O)[C@@H]2O)C(=O)N1C | 0.98 µM (≈ 0.614 µg/mL)
CCCCCCCCCCCCCCCCCCCCCNC(=O)C1=CCN(C)[C@@H]([C@H](O[C@@H]2O[C@H](CN)[C@@H](O)[C@H]2O)[C@H]2O[C@@H](n3ccc(=O)[nH]c3=O)[C@H](O)[C@@H]2O)C(=O)N1C | 0.98 µM (≈ 0.834 µg/mL)
CCCCCCNC(=O)C1=CCN(C)[C@@H]([C@H](O[C@@H]2O[C@H](CN)[C@@H](O)[C@H]2O)[C@H]2O[C@@H](n3ccc(=O)[nH]c3=O)[C@H](O)[C@@H]2O)C(=O)N1C | 0.98 µM (≈ 0.628 µg/mL)
CCCCCCCCCNC(=O)C1=CCN(C)[C@@H]([C@H](O[C@@H]2O[C@H](CN)[C@@H](O)[C@H]2O)[C@H]2O[C@@H](n3ccc(=O)[nH]c3=O)[C@H](O)[C@@H]2O)C(=O)N1C | 0.98 µM (≈ 0.669 µg/mL)
CCCCCCCCCCCCCCCCCNC(=O)C1=CCN(C)[C@@H]([C@H](O[C@@H]2O[C@H](CN)[C@@H](O)[C@H]2O)[C@H]2O[C@@H](n3ccc(=O)[nH]c3=O)[C@H](O)[C@@H]2O)C(=O)N1C | 0.98 µM (≈ 0.779 µg/mL)
CO[C@@H]1[C@@H](OC)[C@H](C)O[C@@H](OC(=O)C[C@@H](C)CC(=O)O[C@@H](CCCCCCCCCCC(C)C)CC(=O)O[C@H]2CN(C)[C@@H]([C@H](O[C@@H]3O[C@H](CN)[C@@H](O)[C@H]3O)[C@H]3O[C@@H](n4ccc(=O)[nH]c4=O)[C@H](O)[C@@H]3O)C(=O)N(C)[C@@H]2C(=O)O)[C@@H]1OC | 2.73 µM (≈ 3.13 µg/mL)
